What all share (assay): growth of human tumour cells (NCI), 48 h
Assay [1] deals with UO-31 renal.
In assay [2] the test system is T-47D breast.
The test system of assay [3] is M19-MEL melanoma.
For assay [4], the system named is LOX IMVI melanoma.
Assay [5] has as its system DMS 273 small cell lung.
Assay [6] relates to TK-10 renal.
The test system of assay [7] is SK-OV-3 ovarian.
Assay [8] concerns RXF 393 renal.
The test system of assay [9] is HCT-15 colon.
The subject of assay [10] is UACC-257 melanoma.

SMILES strings stand for the structures. Values joined by “and” are separate entries in the source; they are usually repeats but may differ in a detail not shown here. Identical values can stand only once.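 Cells were grown in 96-well plates and exposed to each compound for 48 hours at five concentrations; endpoints were interpolated linearly between bracketing concentrations, or set to the highest concentration if not reached. Here, GI50 denotes the concentration required for 50% inhibition of growth. TGI: total growth inhibition.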

On to `O=CN/C=C/c1cccc(O)c1`, for which the TGI in assay [1] was over 83.2 µM; in assay [2], 98.7 µM; in assay [3] it was over 100 µM; in assay [4], 69.1 µM; in assay [5], over 100 µM; in assay [6] it was over 100 µM. For the same compound, the TGI in [7] is over 100 µM; in [8] it was 85.1 µM; in assay [9], over 100 µM; in assay [10] it was over 89.2 µM.

Take `COc1cc(NC(C)CCCN)c2ncccc2c1` (stereo not drawn): the GI50 in assay [1] is 15.2 µM and 42.9 µM; in assay [8], 17.1 µM and 37.4 µM; in [9], 41.9 µM and 98.4 µM; in assay [10], 11.3 µM and 30.2 µM. The TGI is 57.8 µM and > 100 µM in assay [1]; over 53.2 µM in assay [2]; over 100 µM in assay [3]; over 100 µM in assay [4]; over 100 µM in assay [5]; over 100 µM in assay [6]. Also, the TGI was over 100 µM in assay [7]; > 79.6 µM and 100 µM in [8]; over 100 µM in [9]; 27.2 µM and 54.5 µM in [10].

Regarding `COC(=O)c1ccccc1OCc1cc(=O)oc2ccc(C)cc12`, the TGI in assay [1], in assay [2], in assay [3], in assay [4], in assay [5] and in assay [6] was over 100 µM each time. Besides, the TGI in [7], in assay [9] and in [10] was over 100 µM in each case.

Take `CC1OC(OC2C[C@](O)(C(=O)CF)Cc3c(O)c4c(c(O)c32)C(=O)c2ccccc2C4=O)CC(N)C1O` (stereo partly drawn): the TGI was determined as 1.02 µM in assay [1]; 0.151 µM in [2]; 0.248 µM in assay [3]; 0.276 µM in assay [4]; 0.104 µM in assay [5]; 0.497 µM in assay [6]. Moreover, the TGI in [7] amounted to 1.04 µM; in assay [8], 0.268 µM; in assay [9], 0.514 µM; in assay [10], 1.21 µM.

`c1cc2n(n1)CCN2`: the TGI is 9890 µM in assay [1]; over 10000 µM in assay [2]; over 10000 µM in assay [3]; 7690 µM in assay [4]; 2440 µM in assay [5]; over 10000 µM in assay [6]. Also, the TGI in assay [7] is over 7350 µM; in assay [8], 9590 µM; in assay [9] it was over 10000 µM; in [10] it was over 10000 µM.
